# Data published in ChEMBL document CHEMBL3259786, “Quinazolines: new horizons in anticonvulsant therapy” (Eur J Med Chem, 2014).
# How the values were obtained:
# Mus musculus [1] = assay: Anticonvulsant activity in po dosed albino mouse measured after 60 mins by MES test; assay type: functional
# [2] = Acute toxicity in po dosed mouse; assay type: organism-based; details: in vivo
# Mus musculus [3] = assay: Anticonvulsant activity in ip dosed mouse by MES test; assay type: functional
# [4] = Toxicity in ip dosed mouse; assay type: organism-based; details: in vivo
# Mus musculus [5] = species: Mus musculus; assay: Anticonvulsant activity in mouse by MES test; assay type: functional
SMILES,PD50 (Mus musculus [1]) [µmol/kg],LD50 [2] [mg/kg],Activity (Mus musculus [3]) [%],LD50 [4] [mg/kg],ED50 (Mus musculus [5]) [mg/kg]
O=C(CNc1ccc(Cl)cc1)Nn1c(COc2ccc(Cl)cc2Cl)nc2ccccc2c1=O,200.53,> 3000,,,
CCSc1nc(=O)c2ccccc2[nH]1,,,60,1000,
c1ccc(CN(Cc2ccccc2)c2nc(N(Cc3ccccc3)Cc3ccccc3)c3ccccc3n2)cc1,,,50,400,
Nc1nnc2c3ccccc3nc(-c3ccccc3Br)n12,,,,,27.4
